Columns and labels:
α1-ARs = assay: Radioligand binding, displacement of [3H]-Prazosin from α1-ARs on rat cerebral cortex; conditions: for Sα2/α1 (ratio of affinity for α2- and α1-ARs): Ki α2 / Ki α1; for Ki: [3H]-Prazosin, rat cerebral cortex, ± SEM, two independent experiments
Experimental: The pharmacological profile of the new compounds was assessed in radioligand-binding assays as the ability to displace [^3H]-Prazosin or [^3H]-Clonidine from α1- and α2-ARs, respectively, on rat cerebral cortex. The inhibition constants (Ki) were calculated from the Cheng-Prusoff equation [24].
The affinity of the obtained compounds was evaluated by radioligand-binding assays (the ability to displace [^3H]-Prazosin and [^3H]-Clonidine from α1- and α2-ARs, respectively) on rat cerebral cortex. The brains are homogenized in 20 volumes of an ice-cold 50 mM Tris-HCl buffer (pH 7.6) and is centrifuged (MPW Med. Instruments, Warsaw, Poland) at 20,000 g for 20 min (0–4 °C). The cell pellet is resuspended in the Tris-HCl buffer and centrifuged again. Radioligand-binding assays are performed in plates (MultiScreen/Millipore, Burlington, MA, USA). The final incubation mixture (final volume 300 µL) consisted of 240 µL of the membrane suspension, 30 µL of [^3H]-Prazosin (0.2 nM) or [^3H]-Clonidine (2 nM) solution, and 30 µL of the buffer containing seven to eight concentrations (10^−11 to 10^−4 M) of the tested compounds. For measuring the unspecific binding, phentolamine, 10 µM (in the case of [^3H]-Prazosin) and clonidine, and 10 µM (in the case of [^3H]-Clonidine), were applied. The incubation was terminated by rapid filtration over glass fiber filters (Whatman GF/C, Sigma-Aldrich) using a vacuum manifold (Millipore). The filters were then washed twice with the assay buffer and placed in scintillation vials with a liquid-scintillation cocktail. Radioactivity was measured in a WALLAC 1409 DSA liquid-scintillation counter (BioSurplus, San Diego, CA, USA). All the assays were made in duplicate.

α1A-ARs = target: T1, α1A-ARs (Homo sapiens, UniProt P35348); assay: Intrinsic activity at α1A-ARs, β-lactamase reporter gene, FRET substrate; assay type: cell-based; parameters: key to α1A Profile: ANT—antagonist; AGO—agonist; conditions: for IC50: antagonist mode, three independent experiments; for α1A Profile: functional profile
T1 sequence (P35348 1-466): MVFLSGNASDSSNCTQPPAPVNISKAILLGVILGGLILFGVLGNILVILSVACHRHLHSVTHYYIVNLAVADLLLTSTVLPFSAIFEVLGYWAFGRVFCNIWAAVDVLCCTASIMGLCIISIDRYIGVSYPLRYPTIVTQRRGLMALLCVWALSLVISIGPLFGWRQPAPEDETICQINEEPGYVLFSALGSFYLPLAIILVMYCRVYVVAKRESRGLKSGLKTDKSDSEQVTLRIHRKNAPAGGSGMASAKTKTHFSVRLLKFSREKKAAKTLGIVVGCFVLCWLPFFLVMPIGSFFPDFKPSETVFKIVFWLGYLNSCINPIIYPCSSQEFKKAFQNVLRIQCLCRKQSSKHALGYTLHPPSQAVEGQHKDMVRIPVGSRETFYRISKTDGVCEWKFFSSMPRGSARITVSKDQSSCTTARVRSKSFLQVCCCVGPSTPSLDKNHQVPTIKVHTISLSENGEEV
Experimental: The intrinsic activity at α1A-ARs of the selected compounds was assessed by fluorescence detection (Invitrogen, Thermo Fisher Scientific, Carlsbad, CA, USA) of β-lactamase reporter genes using a FRET-enabled substrate. […] Intrinsic activity assay was performed according to the manufacturer of the assay kit (Invitrogen, Thermo Fisher Scientific corporation, Carlsbad, CA, USA). The cells were harvested and suspended in Assay Medium to a density of 312,500 cells/mL. Of the cell suspension, 32 µL per well was added to the Test Compound wells, the Unstimulated Control wells, and Stimulated Control wells and incubated per 16–24 h. […] Then, both the agonist and the antagonist plate were incubated in a humidified 37 °C/5% CO2 incubator for 5 h. After the incubation 8 µL of LiveBLAzer™-FRET B/G Substrate Mixture (CCF4-AM, Thermo Fisher Scientific corporation) was loaded cells in the absence of direct strong lighting, covered, and incubated at room temperature for 2 h.

α1B-ARs = target: T2, α1B-ARs (Homo sapiens, UniProt P35368); assay: Intrinsic activity at α1B-ARs, aequorin calcium mobilization luminescence; assay type: cell-based; parameters: key to α1B Profile: ANT—antagonist; AGO—agonist; conditions: for IC50: antagonist mode, three independent experiments; for α1B Profile: functional profile
T2 sequence (P35368 1-520): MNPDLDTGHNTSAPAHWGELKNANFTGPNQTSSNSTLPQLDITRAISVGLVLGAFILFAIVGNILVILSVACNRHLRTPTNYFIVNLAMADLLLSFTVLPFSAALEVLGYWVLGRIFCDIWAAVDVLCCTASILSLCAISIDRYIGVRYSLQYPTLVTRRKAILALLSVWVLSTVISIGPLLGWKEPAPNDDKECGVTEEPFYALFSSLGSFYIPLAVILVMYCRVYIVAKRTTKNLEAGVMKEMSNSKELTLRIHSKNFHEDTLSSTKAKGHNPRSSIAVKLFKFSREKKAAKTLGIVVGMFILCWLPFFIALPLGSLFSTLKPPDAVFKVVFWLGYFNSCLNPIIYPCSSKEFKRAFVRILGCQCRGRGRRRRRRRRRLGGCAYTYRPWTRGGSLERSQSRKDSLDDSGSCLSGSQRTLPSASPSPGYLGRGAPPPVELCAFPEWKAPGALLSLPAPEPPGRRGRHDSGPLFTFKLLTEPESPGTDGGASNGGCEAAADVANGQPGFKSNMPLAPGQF
Experimental: The intrinsic activity at α1A-ARs of the selected compounds was assessed by fluorescence detection (Invitrogen, Thermo Fisher Scientific, Carlsbad, CA, USA) of β-lactamase reporter genes using a FRET-enabled substrate. The intrinsic activity at α1B-ARs and α1D-ARs was determined by luminescence detection (PerkinElmer, Zaventem, Belgium) of calcium mobilization using the recombinant-expressed jellyfish photoprotein (Aequorin).
Intrinsic activity assay to α1B- and α1D-ARs was performed according to the manufacturer of the ready-to-use cells with stable expression of the α1B-adrenoreceptors and α1D-adrenoreceptors, respectively (PerkinElmer, Zaventem, Belgium). For measurement, cells (frozen, ready to use) were thawed and resuspended in 10 mL of assay buffer containing 5 µM coelenterazine h. This cells suspension was put in a 10 mL Falcon tube, fixed onto a rotating heel, and incubated for overnight at rt in the dark (8 rpm; 45° angle). Cells were diluted with Assay Buffer to 5000 cells/20 µL. Agonistic ligands 2 × (50 µL/well), diluted in Assay Buffer, were prepared in ½ white polystyrene area plates, and the cell suspension was dispensed in 50 µL volume on the ligands using the injector. The light emitted was recorded for 20 s. Cells with antagonist were incubated for 15 min at room temperature. Thereafter, 50 µL of agonist (3 × EC80 final concentration) was injected into the mix of cells and antagonist and the light emitted was recorded for 20 s.

histaminic H1R = target: T3, histaminic H1R (Homo sapiens, UniProt P35367); assay: Off-target panel at Eurofins Cerep, H1; assay type: binding; conditions: read-out: inhibition at histamine H1
T3 construct: Eurofins (Celle-Lévescault, France)
T3 sequence (P35367 whole entry): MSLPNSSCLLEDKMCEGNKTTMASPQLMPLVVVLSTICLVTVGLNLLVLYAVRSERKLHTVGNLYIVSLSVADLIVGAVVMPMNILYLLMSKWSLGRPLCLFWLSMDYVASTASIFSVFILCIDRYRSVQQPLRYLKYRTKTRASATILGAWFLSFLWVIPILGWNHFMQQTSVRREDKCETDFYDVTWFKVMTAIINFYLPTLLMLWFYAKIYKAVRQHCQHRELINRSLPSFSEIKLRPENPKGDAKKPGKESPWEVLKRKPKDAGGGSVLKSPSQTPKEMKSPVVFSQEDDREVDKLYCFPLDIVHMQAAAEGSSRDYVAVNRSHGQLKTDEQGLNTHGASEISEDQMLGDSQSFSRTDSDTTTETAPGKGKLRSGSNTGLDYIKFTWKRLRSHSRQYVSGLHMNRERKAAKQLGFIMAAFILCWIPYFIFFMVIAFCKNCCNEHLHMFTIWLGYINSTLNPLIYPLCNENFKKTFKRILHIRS
Experimental: (§1) Finally, the percentage of inhibition for selected compounds 9 and 10 for off-target histaminic H1R, muscarinic M1R, adrenergic β1-AR and potassium ion channel hERG were assessed at Eurofins (Celle-Lévescault, France) according to the procedure online at www.eurofins.com.

hERG potassium channel = target: T4, hERG potassium channel (Homo sapiens, UniProt Q12809); assay: Off-target panel at Eurofins Cerep, hERG; assay type: binding; conditions: read-out: inhibition at hERG channels
T4 construct: Eurofins (Celle-Lévescault, France)
T4 sequence (Q12809 whole entry): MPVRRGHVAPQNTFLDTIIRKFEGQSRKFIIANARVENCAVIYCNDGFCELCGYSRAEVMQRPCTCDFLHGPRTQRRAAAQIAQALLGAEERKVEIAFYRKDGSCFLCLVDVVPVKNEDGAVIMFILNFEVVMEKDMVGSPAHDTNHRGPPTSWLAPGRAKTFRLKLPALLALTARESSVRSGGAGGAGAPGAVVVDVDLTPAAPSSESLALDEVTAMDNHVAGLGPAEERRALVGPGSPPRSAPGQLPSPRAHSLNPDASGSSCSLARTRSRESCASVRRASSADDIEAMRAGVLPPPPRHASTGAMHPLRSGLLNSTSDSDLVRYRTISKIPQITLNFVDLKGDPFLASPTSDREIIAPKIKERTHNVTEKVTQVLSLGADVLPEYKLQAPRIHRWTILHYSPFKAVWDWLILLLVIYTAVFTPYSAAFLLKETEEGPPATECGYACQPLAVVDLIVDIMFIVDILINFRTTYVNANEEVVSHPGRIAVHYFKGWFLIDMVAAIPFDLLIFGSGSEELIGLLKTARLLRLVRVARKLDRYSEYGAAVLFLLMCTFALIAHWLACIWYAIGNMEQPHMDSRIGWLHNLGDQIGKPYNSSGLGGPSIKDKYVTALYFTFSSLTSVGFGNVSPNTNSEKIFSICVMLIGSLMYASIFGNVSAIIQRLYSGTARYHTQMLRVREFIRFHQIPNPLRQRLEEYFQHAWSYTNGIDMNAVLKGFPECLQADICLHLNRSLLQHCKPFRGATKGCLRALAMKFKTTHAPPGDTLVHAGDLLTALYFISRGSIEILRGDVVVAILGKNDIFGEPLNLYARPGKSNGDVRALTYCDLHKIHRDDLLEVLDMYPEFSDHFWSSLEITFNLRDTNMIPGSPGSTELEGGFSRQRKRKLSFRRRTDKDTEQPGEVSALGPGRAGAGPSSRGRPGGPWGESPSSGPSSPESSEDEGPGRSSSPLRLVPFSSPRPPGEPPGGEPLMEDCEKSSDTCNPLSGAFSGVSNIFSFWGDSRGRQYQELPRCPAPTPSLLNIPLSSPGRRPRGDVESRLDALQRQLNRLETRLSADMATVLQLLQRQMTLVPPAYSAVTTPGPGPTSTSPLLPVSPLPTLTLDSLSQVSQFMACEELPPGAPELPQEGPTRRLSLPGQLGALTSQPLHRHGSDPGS
Experimental: as §1

Row | Sα2/α1 (ratio of affinity for α2- and α1-ARs) (α1-ARs) | Ki (α1-ARs) | IC50 (α1A-ARs) | EC50 (α1A-ARs; antagonist, in abstract) | α1A Profile (α1A-ARs) | functional preference over the α1B subtype (α1A-ARs; α1B vs α1A functional potency) | IC50 (α1B-ARs) | α1B Profile (α1B-ARs) | inhibition at 1 µM (histaminic H1R) | SMILES | inhibition at 1 µM (hERG potassium channel)
1 | 17 | 50 ± 2 nM | 0.8 nM | 0.8 nM | ANT | 5 fold | 3.9 nM | ANT | < 50% | O=S(=O)(NCC1CCN(CCOc2ccccc2OCC(F)(F)F)CC1)c1cccc(Cl)c1F [Compound 9, 3-Chloro-2-fluoro-N-[(1-{2-[(2,2,2-trifluoroethoxy)phenoxy]ethyl}piperidin-4-yl)methyl]benzenesulfonamide] | < 50%
2 | 23 | 26 ± 1 nM | 2.1 nM |  | ANT |  | 10.1 nM | ANT | < 50% | O=S(=O)(NCC1CCN(CCOc2ccccc2OCC(F)(F)F)CC1)c1cc(Cl)ccc1F [Compound 10, 5-Chloro-2-fluoro-N-[(1-{2-[(2,2,2-trifluoroethoxy)phenoxy]ethyl}piperidin-4-yl)methyl]benzenesulfonamide] | < 50%
3 |  |  |  |  | ANT |  | 1.3 nM | ANT |  | CCOc1ccccc1OCCN[C@H](C)Cc1ccc(OC)c(S(N)(=O)=O)c1 [tamsulosin, reference compound] | 

Source: publication PMC6225212, “Synthesis and Pharmacological Evaluation of Novel Silodosin-Based Arylsulfonamide Derivatives as α1A/α1D-Adrenergic Receptor Antagonist with Potential Uroselective Profile” (Molecules : A Journal of Synthetic Chemistry and Natural …, 2018)
